According to patent publication US9580423B2, “Bicyclic heterocycles as FGFR4 inhibitors” (Incyte Corporation, priority 2015, dated 2017):
Like-named read-outs stand apart in the source and are kept apart here.

Tests used:
FGFR3 = FGFR3 (Homo sapiens (Human), UniProt P22607); assay: FGFR Enzymatic Assay (FRET peptide phosphorylation), FGFR3
From the text: (§1) The enzymes were purchased from Millipore or Invitrogen.
(§2) GraphPad prism3 was used to analyze the data. The IC50 values were derived by fitting the data to the equation for a sigmoidal dose-response with a variable slope. Y=Bottom+(Top-Bottom)/(1+10^((LogIC50−X)*HillSlope)) where X is the logarithm of concentration and Y is the response.

FGFR4 = FGFR4 (Homo sapiens (Human), UniProt P22455); assay: FGFR Enzymatic Assay (FRET peptide phosphorylation), FGFR4; conditions: for FGFR1/FGFR4 IC50 ratio / FGFR2/FGFR4 IC50 ratio / FGFR3/FGFR4 IC50 ratio: IC50 ratio showing FGFR4 selectivity
From the text: as §1, §2

FGFR1 = FGFR1 (Homo sapiens (Human), UniProt P11362); assay: FGFR Enzymatic Assay (FRET peptide phosphorylation), FGFR1; conditions: read-out: FGFR1 IC50
From the text: as §1, §2

FGFR2 = FGFR2 (Homo sapiens (Human), UniProt P21802); assay: FGFR Enzymatic Assay (FRET peptide phosphorylation), FGFR2
From the text: as §1, §2

[1] = FGFR3 IC50 (nM), pre-incubated for 5 to 10 minutes
[2] = FGFR3 IC50 (nM), pre-incubated for 4 hours
[3] = read-out: FGFR4 IC50, pre-incubated for 5 to 10 minutes
[4] = read-out: FGFR4 IC50, pre-incubated for 4 hours
[5] = pre-incubated for 5 to 10 minutes
[6] = read-out: FGFR2 IC50, pre-incubated for 5 to 10 minutes
[7] = read-out: FGFR2 IC50, pre-incubated for 4 hours
[8] = read-out: FGFR3 IC50, pre-incubated for 5 to 10 minutes
[9] = read-out: FGFR3 IC50, pre-incubated for 4 hours

Sequence of FGFR1 (P11362 22-822): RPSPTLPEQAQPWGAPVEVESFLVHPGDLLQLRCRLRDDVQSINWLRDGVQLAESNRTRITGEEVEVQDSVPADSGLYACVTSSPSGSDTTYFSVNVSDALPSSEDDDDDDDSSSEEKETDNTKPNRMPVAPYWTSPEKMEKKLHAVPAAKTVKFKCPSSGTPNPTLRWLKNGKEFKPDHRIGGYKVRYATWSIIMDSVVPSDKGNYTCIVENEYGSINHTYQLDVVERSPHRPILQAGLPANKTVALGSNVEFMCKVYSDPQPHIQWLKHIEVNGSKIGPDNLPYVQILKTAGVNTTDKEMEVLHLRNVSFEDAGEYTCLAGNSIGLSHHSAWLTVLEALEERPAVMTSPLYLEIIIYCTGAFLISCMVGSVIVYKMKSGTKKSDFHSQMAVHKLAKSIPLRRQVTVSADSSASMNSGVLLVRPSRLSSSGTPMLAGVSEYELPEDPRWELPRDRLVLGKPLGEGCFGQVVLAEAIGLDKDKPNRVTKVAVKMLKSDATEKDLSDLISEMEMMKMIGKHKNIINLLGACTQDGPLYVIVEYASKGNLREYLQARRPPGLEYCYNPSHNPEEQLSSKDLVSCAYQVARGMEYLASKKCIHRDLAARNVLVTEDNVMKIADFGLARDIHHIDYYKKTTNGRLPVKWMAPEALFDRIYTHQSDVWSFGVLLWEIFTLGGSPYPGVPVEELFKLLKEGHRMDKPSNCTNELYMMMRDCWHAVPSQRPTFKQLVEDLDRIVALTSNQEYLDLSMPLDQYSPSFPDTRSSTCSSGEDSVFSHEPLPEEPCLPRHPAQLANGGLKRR
Sequence of FGFR2 (P21802 22-821): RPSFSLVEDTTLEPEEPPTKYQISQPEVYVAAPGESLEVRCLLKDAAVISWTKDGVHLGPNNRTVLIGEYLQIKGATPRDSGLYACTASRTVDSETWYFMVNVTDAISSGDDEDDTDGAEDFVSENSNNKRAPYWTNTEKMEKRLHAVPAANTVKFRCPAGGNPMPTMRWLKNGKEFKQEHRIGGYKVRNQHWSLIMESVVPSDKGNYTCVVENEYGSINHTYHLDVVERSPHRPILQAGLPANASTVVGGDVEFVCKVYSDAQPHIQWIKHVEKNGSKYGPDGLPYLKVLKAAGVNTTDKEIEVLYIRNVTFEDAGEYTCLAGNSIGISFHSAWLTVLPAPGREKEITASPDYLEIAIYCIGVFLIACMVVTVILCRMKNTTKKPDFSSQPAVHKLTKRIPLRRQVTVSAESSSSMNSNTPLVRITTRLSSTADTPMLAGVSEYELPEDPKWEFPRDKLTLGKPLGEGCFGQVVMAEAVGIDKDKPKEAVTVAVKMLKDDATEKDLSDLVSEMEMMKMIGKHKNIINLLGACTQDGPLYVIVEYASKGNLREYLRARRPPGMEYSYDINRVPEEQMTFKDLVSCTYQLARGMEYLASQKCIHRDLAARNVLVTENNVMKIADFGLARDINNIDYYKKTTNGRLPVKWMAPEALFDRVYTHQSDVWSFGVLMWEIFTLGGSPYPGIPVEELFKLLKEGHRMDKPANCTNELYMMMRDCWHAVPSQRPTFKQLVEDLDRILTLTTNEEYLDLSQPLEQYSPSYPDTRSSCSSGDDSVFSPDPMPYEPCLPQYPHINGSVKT
Sequence of FGFR3 (P22607 23-806): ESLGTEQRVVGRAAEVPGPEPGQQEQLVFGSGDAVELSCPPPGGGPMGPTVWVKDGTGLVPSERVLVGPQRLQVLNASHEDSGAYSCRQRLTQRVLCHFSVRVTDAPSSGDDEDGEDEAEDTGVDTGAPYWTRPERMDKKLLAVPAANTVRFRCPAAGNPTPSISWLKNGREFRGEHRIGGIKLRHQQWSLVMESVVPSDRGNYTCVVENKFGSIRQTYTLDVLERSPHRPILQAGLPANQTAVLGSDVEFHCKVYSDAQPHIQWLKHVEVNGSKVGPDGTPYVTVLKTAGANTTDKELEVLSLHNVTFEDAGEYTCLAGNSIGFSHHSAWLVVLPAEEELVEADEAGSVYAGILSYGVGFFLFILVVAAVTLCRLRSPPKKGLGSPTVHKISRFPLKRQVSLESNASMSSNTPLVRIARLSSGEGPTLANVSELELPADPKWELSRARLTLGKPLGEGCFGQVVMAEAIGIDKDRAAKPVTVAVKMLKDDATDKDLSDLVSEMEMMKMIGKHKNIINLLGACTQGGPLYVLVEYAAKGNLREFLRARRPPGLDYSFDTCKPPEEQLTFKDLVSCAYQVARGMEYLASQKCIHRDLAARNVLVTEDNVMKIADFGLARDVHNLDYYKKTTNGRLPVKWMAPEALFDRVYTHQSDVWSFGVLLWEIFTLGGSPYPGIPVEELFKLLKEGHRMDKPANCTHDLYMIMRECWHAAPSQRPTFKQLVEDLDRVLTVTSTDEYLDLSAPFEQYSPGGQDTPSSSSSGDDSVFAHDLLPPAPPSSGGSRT
Sequence of FGFR4 (P22455 22-802): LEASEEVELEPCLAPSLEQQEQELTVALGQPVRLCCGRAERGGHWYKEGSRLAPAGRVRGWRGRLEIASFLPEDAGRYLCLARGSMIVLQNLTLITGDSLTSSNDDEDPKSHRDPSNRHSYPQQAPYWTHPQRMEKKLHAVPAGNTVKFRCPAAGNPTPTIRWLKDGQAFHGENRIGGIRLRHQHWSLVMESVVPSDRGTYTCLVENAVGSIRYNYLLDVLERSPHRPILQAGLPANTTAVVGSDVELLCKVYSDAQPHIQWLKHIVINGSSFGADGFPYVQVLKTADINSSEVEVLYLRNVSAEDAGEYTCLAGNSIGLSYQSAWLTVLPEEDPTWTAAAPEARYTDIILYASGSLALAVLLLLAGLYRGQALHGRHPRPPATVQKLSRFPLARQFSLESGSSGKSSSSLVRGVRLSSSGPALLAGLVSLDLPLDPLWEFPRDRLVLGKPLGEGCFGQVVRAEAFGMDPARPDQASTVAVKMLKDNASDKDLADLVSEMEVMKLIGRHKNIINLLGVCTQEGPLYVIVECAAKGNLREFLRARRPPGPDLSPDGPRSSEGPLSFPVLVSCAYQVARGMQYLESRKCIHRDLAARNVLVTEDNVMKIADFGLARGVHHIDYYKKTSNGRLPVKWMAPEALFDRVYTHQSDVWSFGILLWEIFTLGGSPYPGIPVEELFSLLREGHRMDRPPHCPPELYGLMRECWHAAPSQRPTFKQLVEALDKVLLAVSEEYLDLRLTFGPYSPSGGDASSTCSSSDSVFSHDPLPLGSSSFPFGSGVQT

SMILES | IC50 (FGFR3; [1]) [nM] | IC50 (FGFR3; [2]) [nM] | IC50 (FGFR4; [3]) [nM] | IC50 (FGFR4; [4]) [nM] | IC50 (FGFR1; [5]) [nM] | IC50 (FGFR1; pre-incubated for 4 hours) [nM] | IC50 (FGFR2; [6]) [nM] | IC50 (FGFR2; [7]) [nM] | IC50 (FGFR3; [8]) [nM] | IC50 (FGFR3; [9]) [nM] | FGFR1/FGFR4 IC50 ratio (FGFR4; [5]) | FGFR2/FGFR4 IC50 ratio (FGFR4; [5]) | FGFR3/FGFR4 IC50 ratio (FGFR4; [5]) | FGFR1/FGFR4 IC50 ratio (FGFR4; pre-incubated for 4 hours) | FGFR2/FGFR4 IC50 ratio (FGFR4; pre-incubated for 4 hours) | FGFR3/FGFR4 IC50 ratio (FGFR4; pre-incubated for 4 hours) | IC50 (FGFR2) [nM] | IC50 (FGFR4) [nM]
C=CC(=O)Nc1cccc(-c2cc3c(cn2)CN(c2c(F)c(OC)cc(OC)c2F)C(=O)C32CC2)c1 [Example 1, N-{3-[2′-(2,6-difluoro-3,5-dimethoxyphenyl)-3′-oxo-2′,3′-dihydro-1′H-spiro[cyclopropane-1,4′-[2,7]naphthyridin]-6′-yl]phenyl}acrylamide] | 10 to 30 | 10 to 30 | < 10 | < 10 |  |  |  |  |  |  |  |  |  |  |  |  |  | 
C=CC(=O)Nc1ccc(C)c(-c2cc3c(cn2)CN(c2c(F)c(OC)cc(OC)c2F)C(=O)C32CC2)c1 [Example 2, N-(3-(2′-(2,6-difluoro-3,5-dimethoxyphenyl)-3′-oxo-2′,3′-dihydro-1′H-spiro[cyclopropane-1,4′-[2,7]naphthyridine]-6′-yl)-4-methylphenyl)acrylamide] |  |  | < 10 | < 10 | > 200 | > 200 | > 200 | > 200 | > 200 | > 200 | >100 | >100 | >100 | >100 | >100 | >100 |  | 
C=CC(=O)Nc1cncc(-c2cc3c(cn2)CN(c2c(F)c(OC)cc(OC)c2F)C(=O)C32CC2)c1 [Example 3, N-(5-(2′-(2,6-difluoro-3,5-dimethoxyphenyl)-3′-oxo-2′,3′-dihydro-1′H-spiro[cyclopropane-1,4′-[2,7]naphthyridine]-6′-yl)pyridin-3-yl)acrylamide] | 30 to 200 | 30 to 200 | < 10 | < 10 |  |  | 30 to 200 |  |  |  |  |  |  |  |  |  | 30 to 200 | 
C=CC(=O)Nc1cc(-c2cc3c(cn2)CN(c2c(F)c(OC)cc(OC)c2F)C(=O)C32CC2)ccn1 [Example 4, N-(4-(2′-(2,6-difluoro-3,5-dimethoxyphenyl)-3′-oxo-2′,3′-dihydro-1′H-spiro[cyclopropane-1,4′-[2,7]naphthyridine]-6′-yl)pyridin-2-yl)acrylamide] | 10 to 30 | 10 to 30 |  |  |  |  |  |  |  |  |  |  |  |  |  |  |  | 
C=CC(=O)Nc1ccc(C#N)c(-c2cc3c(cn2)CN(c2c(F)c(OC)cc(OC)c2F)C(=O)C32CC2)c1 [Example 5, N-(4-cyano-3-(2′-(2,6-difluoro-3,5-dimethoxyphenyl)-3′-oxo-2′,3′-dihydro-1′H-spiro[cyclopropane-1,4′-[2,7]naphthyridine]-6′-yl)phenyl)acrylamide] |  |  | < 10 | < 10 | > 200 | > 200 | > 200 | > 200 | > 200 | > 200 | >100 | >100 | >100 | >100 | >100 | >100 |  | 
C=CC(=O)Nc1cc(-c2cc3c(cn2)CN(c2c(F)c(OC)cc(OC)c2F)C(=O)C32CC2)c(C)cc1F [Example 6, N-(5-(2′-(2,6-difluoro-3,5-dimethoxyphenyl)-3′-oxo-2′,3′-dihydro-1′H-spiro[cyclopropane-1,4′-[2,7]naphthyridine]-6′-yl)-2-fluoro-4-methylphenyl)acrylamide] |  |  | < 10 | < 10 | > 200 | > 200 | > 200 | > 200 | > 200 | > 200 | >100 | >100 | >100 | >100 | >100 | >100 |  | 
C=CC(=O)Nc1cnc(C)c(-c2cc3c(cn2)CN(c2c(F)c(OC)cc(OC)c2F)C(=O)C32CC2)c1 [Example 7, N-(5-(2′-(2,6-difluoro-3,5-dimethoxyphenyl)-3′-oxo-2′,3′-dihydro-1′H-spiro[cyclopropane-1,4′-[2,7]naphthyridine]-6′-yl)-6-methylpyridin-3-yl)acrylamide] |  |  | < 10 | < 10 | > 200 | > 200 | > 200 | > 200 | > 200 | > 200 | >100 | >100 | >100 | >100 | >100 | >100 |  | 
C=CC(=O)N1CCCC(c2cc3c(cn2)CN(c2c(F)c(OC)cc(OC)c2F)C(=O)C32CC2)C1 (stereo not shown) [Example 8, 6′-(1-acryloylpiperidin-3-yl)-2′-(2,6-difluoro-3,5-dimethoxyphenyl)-1′H-spiro[cyclopropane-1,4′-[2,7]naphthyridin]-3′(2′H)-one] |  |  | > 200 |  | > 200 | > 200 | > 200 | > 200 | > 200 | > 200 | >5 | >1 | >1 | >10 | >2 | >2 |  | 30 to 200
C=CC(=O)N(C)c1cccc(-c2cc3c(cn2)CN(c2c(F)c(OC)cc(OC)c2F)C(=O)C32CC2)c1 [Example 9, N-(3-(2′-(2,6-difluoro-3,5-dimethoxyphenyl)-3′-oxo-2′,3′-dihydro-1′H-spiro[cyclopropane-1,4′-[2,7]naphthyridine]-6′-yl)phenyl)-N-methylacrylamide] | 10 to 30 | 10 to 30 | < 10 | < 10 |  |  | 30 to 200 |  |  |  |  |  |  |  |  |  | 30 to 200 | 
C=CC(=O)Nc1cc(-c2cc3c(cn2)CN(c2c(F)c(OC)cc(OC)c2F)C(=O)C32CC2)cc(N2CCOCC2)c1 [Example 10, N-{3-[2′-(2,6-difluoro-3,5-dimethoxyphenyl)-3′-oxo-2′,3′-dihydro-1′H-spiro[cyclopropane-1,4′-[2,7]naphthyridin]-6′-yl]-5-morpholin-4-ylphenyl}acrylamide] |  |  | < 10 | < 10 | > 200 | > 200 | > 200 | > 200 | > 200 | > 200 | >100 | >100 | >100 | >100 | >100 | >100 |  | 
C=CC(=O)Nc1cc(CN2CCOCC2)cc(-c2cc3c(cn2)CN(c2c(F)c(OC)cc(OC)c2F)C(=O)C32CC2)c1 [Example 11, N-[3-[2′-(2,6-difluoro-3,5-dimethoxyphenyl)-3′-oxo-2′,3′-dihydro-1′H-spiro[cyclopropane-1,4′-[2,7]naphthyridin]-6′-yl]-5-(morpholin-4-ylmethyl)phenyl]acrylamide] |  |  | < 10 | < 10 | > 200 | > 200 | > 200 | > 200 | > 200 | > 200 | >100 | >100 | >100 | >100 | >100 | >100 |  | 
C=CC(=O)Nc1cc(-c2cc3c(cn2)CN(c2c(F)c(OC)cc(OC)c2F)C(=O)C32CC2)ccc1CN1CCOCC1 [Example 12, N-(5-(2′-(2,6-difluoro-3,5-dimethoxyphenyl)-3′-oxo-2′,3′-dihydro-1′H-spiro[cyclopropane-1,4′-[2,7]naphthyridine]-6′-yl)-2-(morpholinomethyl)phenyl)acrylamide] | 30 to 200 | 10 to 30 | < 10 | < 10 | > 200 | > 200 | 30 to 200 |  |  |  | >10 | >1 | >1 | >100 | >25 | >10 | 30 to 200 | 
C=CC(=O)Nc1cc(-c2cc3c(cn2)CN(c2c(F)c(OC)cc(OC)c2F)C(=O)C32CC2)ccc1CO [Example 13, N-(5-(2′-(2,6-difluoro-3,5-dimethoxyphenyl)-3′-oxo-2′,3′-dihydro-1′H-spiro[cyclopropane-1,4′-[2,7]naphthyridine]-6′-yl)-2-(hydroxymethyl)phenyl)acrylamide] | 30 to 200 | 30 to 200 | < 10 | < 10 |  |  | 30 to 200 |  |  |  |  |  |  |  |  |  | 30 to 200 | 
C=CC(=O)Nc1cnn(CC(=O)NC)c1-c1cc2c(cn1)CN(c1c(F)c(OC)cc(OC)c1F)C(=O)C21CC1 [Example 20, N-(5-(2′-(2,6-difluoro-3,5-dimethoxyphenyl)-3′-oxo-2′,3′-dihydro-1′H-spiro[cyclopropane-l,4′[2,7]naphthyridine]-6′-yl)-1-(2-(methylamino)-2-oxoethyl)-1H-pyrazol-4-yl)acrylamide] |  |  |  |  |  |  |  |  |  |  |  |  |  | >50 | >100 | >100 |  | 
